# Reference: patent US20260297106A1, “SPIROCYCLIC SUBSTITUTED OXOISOINDOLINYL PIPERIDINE-2,6-DIONE COMPOUND” (Bristol-Myers Squibb Company, priority 2023, published 2026)
# How the values were obtained:
# IKZF1 Ikaros = IKZF1 Ikaros (Homo sapiens, UniProt Q13422+Q96SW2); assay: Jurkat Cellular Degradation Assay (IKZF1 Ikaros); assay type: cell-based; design: endogenous in cells; settings: Jurkat cells, 72 h; for Dmax: human, 100% = no detectable protein remaining, read-out: IKZF1 Ikaros max % deg. observed
# Sequence of IKZF1 Ikaros (Q13422 whole entry): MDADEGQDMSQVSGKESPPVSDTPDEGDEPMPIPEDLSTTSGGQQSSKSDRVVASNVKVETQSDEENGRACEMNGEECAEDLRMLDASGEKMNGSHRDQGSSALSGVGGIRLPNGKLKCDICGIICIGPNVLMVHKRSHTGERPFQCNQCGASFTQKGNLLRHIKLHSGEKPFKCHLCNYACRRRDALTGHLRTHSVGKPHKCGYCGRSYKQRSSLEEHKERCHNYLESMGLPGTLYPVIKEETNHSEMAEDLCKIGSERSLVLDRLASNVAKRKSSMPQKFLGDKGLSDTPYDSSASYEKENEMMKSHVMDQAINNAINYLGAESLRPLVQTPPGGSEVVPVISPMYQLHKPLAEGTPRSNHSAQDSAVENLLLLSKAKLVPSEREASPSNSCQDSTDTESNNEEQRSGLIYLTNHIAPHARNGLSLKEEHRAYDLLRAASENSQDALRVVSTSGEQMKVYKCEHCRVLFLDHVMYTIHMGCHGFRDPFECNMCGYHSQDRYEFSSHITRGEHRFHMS
# Sequence of IKZF1 Ikaros (Q96SW2 whole entry): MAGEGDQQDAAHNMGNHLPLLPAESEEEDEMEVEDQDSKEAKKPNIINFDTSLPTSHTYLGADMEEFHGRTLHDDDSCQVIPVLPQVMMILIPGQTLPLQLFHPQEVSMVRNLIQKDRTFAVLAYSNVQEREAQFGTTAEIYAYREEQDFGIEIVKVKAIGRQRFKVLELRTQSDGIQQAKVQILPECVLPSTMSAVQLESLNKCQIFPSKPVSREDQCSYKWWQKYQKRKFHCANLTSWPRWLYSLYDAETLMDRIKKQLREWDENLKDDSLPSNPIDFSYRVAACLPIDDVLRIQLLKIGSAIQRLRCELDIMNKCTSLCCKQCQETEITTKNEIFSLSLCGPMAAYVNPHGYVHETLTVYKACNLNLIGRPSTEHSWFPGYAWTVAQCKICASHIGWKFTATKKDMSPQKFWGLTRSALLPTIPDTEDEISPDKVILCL
# Sequence of IKZF1 Ikaros (Q16531 whole entry partner): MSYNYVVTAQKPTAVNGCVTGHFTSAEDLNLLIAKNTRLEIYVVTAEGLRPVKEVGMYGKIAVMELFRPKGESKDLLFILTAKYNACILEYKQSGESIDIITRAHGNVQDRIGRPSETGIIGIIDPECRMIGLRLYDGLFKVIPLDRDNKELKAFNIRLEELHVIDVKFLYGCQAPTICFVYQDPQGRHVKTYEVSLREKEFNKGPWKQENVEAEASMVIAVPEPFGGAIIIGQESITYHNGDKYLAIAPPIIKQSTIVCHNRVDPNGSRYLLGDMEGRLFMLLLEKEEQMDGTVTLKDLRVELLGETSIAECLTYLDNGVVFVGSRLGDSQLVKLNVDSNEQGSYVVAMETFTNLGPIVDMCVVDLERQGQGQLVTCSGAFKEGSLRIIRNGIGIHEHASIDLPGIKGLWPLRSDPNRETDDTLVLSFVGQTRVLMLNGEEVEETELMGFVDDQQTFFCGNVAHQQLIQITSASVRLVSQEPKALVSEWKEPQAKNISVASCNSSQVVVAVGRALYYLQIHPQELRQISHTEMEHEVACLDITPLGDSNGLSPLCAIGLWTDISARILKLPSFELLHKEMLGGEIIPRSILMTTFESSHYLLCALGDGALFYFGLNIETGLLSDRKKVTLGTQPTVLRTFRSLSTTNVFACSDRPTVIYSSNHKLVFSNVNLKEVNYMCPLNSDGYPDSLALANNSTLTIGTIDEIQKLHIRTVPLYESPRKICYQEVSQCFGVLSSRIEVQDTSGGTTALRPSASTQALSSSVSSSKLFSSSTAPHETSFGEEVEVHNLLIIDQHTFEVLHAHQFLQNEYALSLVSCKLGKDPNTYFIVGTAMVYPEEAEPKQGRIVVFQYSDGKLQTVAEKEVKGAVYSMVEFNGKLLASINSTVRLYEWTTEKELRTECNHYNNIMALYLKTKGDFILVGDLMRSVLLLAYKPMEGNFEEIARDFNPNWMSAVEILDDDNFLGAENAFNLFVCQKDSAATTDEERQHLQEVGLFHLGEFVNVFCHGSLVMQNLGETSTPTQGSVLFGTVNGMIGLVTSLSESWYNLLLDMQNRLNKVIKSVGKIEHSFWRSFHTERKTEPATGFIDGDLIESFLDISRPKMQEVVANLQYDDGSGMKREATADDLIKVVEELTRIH
# Procedure: Jurkat cells were plated at 80,000 cells/well in 40 μL RPMI+10% FBS in a 384-well cell culture plate prior to using acoustic dispensing technology for adding a compound of interest. Cell cultures were incubated for 72 h at 37° C. and 5% CO2. In order to facilitate analysis, cell cultures were spun down at 200 rpm for 5 min and the supernatant was discarded. After shaking the plate to dislodge the cell pellet, cells were resuspended in 50 μL of Fixation Buffer (eBioscience FoxP3 buffer set 00-5523-00) for 60 min at room temperature. After centrifuging and discarding the supernatant, cells were permeabilized with 50 μL of Permeabilization buffer (eBioscience FoxP3 buffer set 00-5523-00) for 10 min at room temperature. Following permeabilization, cells were spun down and the supernatant was replaced with 20 μL fluorescently labelled antibodies against Helios, Ikaros and Aiolos or corresponding Isotype controls in 1× Permeabilization buffer (Ikaros-Alexa488 [Biolegend, Cat #368408, 1:50], Helios-PE [CST, Cat #29360, 1:50], Aiolos-Alexa647 [Biolegend, Cat #371106 Biolegend, 1:25]) and staining reactions were incubated for 1 h at room temperature while protected from light. Subsequently, 30 μL of 1× Permeabilization buffer was added prior to centrifuging the cells and discarding the supernatant. Stained cells were resuspended in 25 μL of flow cytometry staining buffer [PBS+0.2% bovine serum albumin (BSA)] and analyzed using an Intellicyt Ique Plus flow cytometer.
# Table A-1 lists the maximum observed degradation of the IKZF1 protein, IKZF2 protein, and IKZF3 protein as measured in the Jurkat Cellular Degradation assay. The results in Table A-I were rounded to two digits. In the Jurkat Cellular Degradation assay, a value of 100% indicated no detectable protein remaining or complete degradation of the protein; and a value of 0% indicated no detectable degradation of the protein by the test compound.
# IKZF2 Helios = IKZF2 Helios (Homo sapiens, UniProt Q96SW2+Q9UKS7); assay: Human Regulatory T Cell Degradation Assay (IKZF2 Helios); assay type: cell-based; design: T cells were isolated from fresh healthy leukopaks; endogenous in cells; host or cells: FACS-sorted primary human CD4+ CD127low CD25+ Treg cells from healthy leukopaks; settings: human regulatory T cells, 20 hours; for Dmax: Regulatory T cell, 100% = no detectable protein remaining, read-out: IKZF2 Helios max % deg. observed; for DC50: concentration reducing protein level by 50% vs DMSO
# Sequence of IKZF2 Helios (Q9UKS7 whole entry): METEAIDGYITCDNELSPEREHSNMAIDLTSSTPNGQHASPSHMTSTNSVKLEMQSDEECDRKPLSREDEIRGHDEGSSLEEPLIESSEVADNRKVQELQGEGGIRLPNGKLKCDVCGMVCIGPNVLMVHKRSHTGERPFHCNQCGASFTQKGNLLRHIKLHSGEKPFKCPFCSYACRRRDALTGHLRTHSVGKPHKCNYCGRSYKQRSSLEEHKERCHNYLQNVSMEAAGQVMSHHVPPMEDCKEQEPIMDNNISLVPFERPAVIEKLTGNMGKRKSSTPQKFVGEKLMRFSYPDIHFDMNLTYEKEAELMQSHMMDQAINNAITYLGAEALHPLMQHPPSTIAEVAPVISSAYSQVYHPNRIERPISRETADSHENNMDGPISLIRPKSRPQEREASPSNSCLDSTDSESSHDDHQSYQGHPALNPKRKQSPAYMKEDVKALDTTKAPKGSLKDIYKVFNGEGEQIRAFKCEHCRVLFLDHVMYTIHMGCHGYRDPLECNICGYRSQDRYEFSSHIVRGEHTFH
# Sequence of IKZF2 Helios (Q96SW2 whole entry): as the sequence (Q96SW2 whole entry) above
# Sequence of IKZF2 Helios (Q16531 whole entry partner): as the sequence (Q16531 whole entry partner) above
# Procedure: Cryopreserved human regulatory T cells were thawed in RPMI+10% FBS+20 ng/mL IL-2. After being spun at 1200 rpm for 5 mins, the cells were resuspended in RPMI+10% FBS+20 ng/ml and rested at 37° C. with 5% CO2 for 3 hours. The cells were then plated at 40,000 cells/well in 40 μL RPMI+10% FBS+20 ng/ml human IL~2 in a 384 well cell culture plate prior to using acoustic dispensing technology (ECHO 555) for adding compounds of interest. Cell cultures were incubated for 20 hours at 37° C. and 5% CO2. In order to facilitate analysis, cell cultures were spun down at 1200 rpm for 5 minutes and the supernatant was discarded using an EL406 plate washer. After washing three times with 70 μL PBS, cell pellets were resuspended in 50 μL of near IR viability staining solution (Life Technologies, Cat #L34975) and incubated for 30 minutes on ice protected from light. Cells were washed three times with 70 μL PBS+0.5% BSA using an EL406 plate washer. After shaking the plate to dislodge the cell pellet, cells were resuspended in 50 μL of Fixation Buffer (eBioScience FoxP3 buffer set 00-5523-00) for 60 minutes at room temperature. After centrifuging and discarding the supernatant, cells were permeabilized with 50 μL of permeabilization buffer (eBioScience FoxP3 buffer set 00-5523-00) for 10 minutes at room temperature. Following permeabilization, cells were spun down and the supernatant was replaced with 30 μL fluorescently labelled antibodies against the intracellular targets Helios (Helios-APC [BioLegend, Cat #137222, 1:50])]), Aiolos, and Ikaros Ix Permeabilization buffer and staining reactions were incubated for 1 hour at room temperature; protected from light. Subsequently, 30 μL of 1× Permeabilization buffer was added prior to centrifuging the cells and discarding the supernatant. Stained cells were resuspended in 30 μL of flow cytometry staining buffer (PBS+0.5% BSA) and analyzed using an Intellicyt Ique Plus flow cytometer.
# Table B-1 lists the maximum observed degradation of the IKZF1 protein and IKZF2 protein as measured in the Human Regulatory Cell T Degradation assay. The results in Table B-1 were rounded to two digits. In the Human Regulatory T Cell Degradation assay, a value of 100% indicated no detectable protein remaining or complete degradation of the protein; and a value of 0% indicated no detectable degradation of the protein by the test compound.
Dmax (IKZF1 Ikaros),Dmax (IKZF2 Helios),DC50 (IKZF2 Helios),DC50 (IKZF1 Ikaros; concentration reducing protein level by 50% vs DMSO),SMILES
13%,101%,2.9 nM,,"O=C1CCC(N2Cc3c(ccc(-c4cc(CN5CC(c6ccccc6)C5)ccn4)c3F)C2=O)C(=O)N1 (stereo not shown) [Comparative Compound A, 3-(4-fluoro-1-oxo-5-(4-((3-phenylazetidin-1-yl)methyl)pyridin-2-yl)isoindolin-2-yl) piperidine-2,6-dione]"
48%,97%,11 nM,,"Nc1nc(-c2ccc3c(c2)CN(C2CCC(=O)NC2=O)C3=O)ccc1CN1CC2(CCC2)C1 (stereo not shown) [Comparative Compound B, 3-(5-(5-((2-azaspiro[3.3]heptan-2-yl)methyl)-6-aminopyridin-2-yl)-1-oxoisoindolin-2-yl) piperidine-2,6-dione]"
53%,100%,10 nM,6440 nM,"Nc1nc(-c2ccc3c(c2F)CN(C2CCC(=O)NC2=O)C3=O)ccc1CN1CC2(CCCOC2)C1 (stereo not shown) [Example 1, 3-(5-(5-((6-oxa-2-azaspiro[3.5]nonan-2-yl)methyl)-6-aminopyridin-2-yl)-4-fluoro-1-oxoisoindolin-2-yl) piperidine-2,6-dione]"
